The compounds below were run on A2780 (assay: Modified MTT assay, A2780 (parental, MMR proficient)). Details: Homo sapiens, A2780, 24 hour drug exposure.
Format: cell-based, human
Protocol: (§1) Relative drug sensitivities (Resistance Factor) and IC50 values were determined by a modified MTT assay (see, e.g., Mosmann, 1983; Plumb et al., 1989), as described below: • (1) Trypsinise a sub-confluent monolayer culture and collect cells in growth medium containing serum. Centrifuge the suspension (200 g, 5 minutes) to pellet cells, re-suspend in growth medium, and count cells. Dilute cells to a density of 5×10^3 cells/mL allowing 60 mL of cell suspension for 3 microtitre plates. Transfer cell suspension to a 10 cm petri dish, and with a multichannel pipette add 200 μL to each well of the central 10 columns of a flat bottomed 96-well plate (80 wells per plate) starting with column 2 and ending with column 11. Add 200 μL of growth medium to the 8 wells in columns 1 and 12. Put the plates in a plastic box and incubate in a humidified atmosphere at 37° C. for 2-3 days so that cells are in the exponential phase of growth for drug addition. • (2) Prepare a serial 5-fold dilution of the cytotoxic drug in growth medium to give 8 concentrations. Pipette 6 mL of growth medium in to each of 7 universal containers (30 mL). Prepare 10 mL of the highest concentration of the drug and transfer 1.5 mL of this solution to the first universal container. Mix and then transfer 1.5 mL to the next universal container. Continue until the seventh universal container is reached. The concentrations should be chosen so that the highest concentration kills most of the cells and the lowest kills none of the cells. Normally, three plates are used for each drug to give triplicate determinations within one experiment. • (3) The medium is removed from all the wells in columns 2 to 11. This can be achieved with a hypodermic needle attached to a suction line. Cells in the 8 wells in columns 2 and 11 are fed with 200 μL of fresh growth medium. The drug solutions are transferred to 10 cm petri dishes and 200 μL added to all 8 wells of a column. For ease of analysis arrange the drug solutions in order so that the highest is in column 3 down to the lowest in column 10. Plates are returned to the plastic box and incubated for 24 hours. • (4) At the end of the drug exposure period, the medium is removed from all wells containing cells and the cells are fed with 200 μL of fresh medium. • (5) The plates are fed daily for two more days. • (6) The plates are fed with 200 μL of fresh medium and 50 μL of the MTT solution (5 mg/mL in PBS) is added to all wells in columns 1 to 11. Plates are wrapped in aluminium foil and incubated for 4 hours in a humidified atmosphere at 37° C. • (7) The medium and MTT are then removed from the wells and the purple MTT-formazan crystals dissolved by addition of 200 μL of DMSO to all wells in columns 1 to 11. Glycine buffer is added (25 μL per well) to all wells containing DMSO. • (8) Absorbance is recorded at 570 nm with the wells in column 1, which contained medium and MTT but no cells used as a blank. • (9) A graph is plotted of absorbance (y-axis) against drug concentration (x-axis). The mean absorbance reading from the wells in columns 2 and 11 is used as the control absorbance and the IC50 concentration is determined as the drug concentration required to reduce the absorbance to half that of the control. IC10 or IC90 values can be determined in the same manner.
(§2) A2780/cp70 and A2780/mcp1 have lost expression of MLH1, have lost MMR activity, and have microsatellite instability compared to A2780. The CpG island at the MLH1 gene is methylated in A2780/cp70 and A2780/mcp1, but not A2780.
(§3) IC50 values (μM) for A2780, A2780/cp70, and A2780/mcp1 and Resistance Factors (RF) (the fold difference in resistance from parental A2780) were determined based on the MTT assay described above for several compounds of the present invention (including, e.g., MMR201).
Compound `CC[n+]1c(/C=C2\Sc3oc4ccccc4c3N2C)ccc2ccccc21.[I-]` [MMR211] has an IC50 of 69 ± 7 nM.
`CC[n+]1c(/C=C2\SC=CN2C)ccc2ccccc21.[I-]` [MMR212] showed an IC50 of 1670 ± 370 nM.
Compound `CC[n+]1c(/C=C2\SC=C(C)N2C)ccc2ccccc21.[I-]` [MMR213] has an IC50 of 1230 ± 51 nM.
`CC[n+]1ccccc1/C=C1\SC=CN1C.[I-]` [MMR302] showed an IC50 of 13600 ± 1550 nM.
Work on `CC[n+]1ccccc1/C=C1\SC=C(C)N1C.[I-]` [MMR304] yielded an IC50 of 64500 ± 3910 nM.
In the case of `CC[n+]1ccccc1/C=C1\Sc2oc3ccccc3c2N1C.[I-]` [MMR307], the IC50 is reported as 752 ± 73 nM.

The compounds below were run on A2780/cp70 (assay: Modified MTT assay, A2780/cp70 (cisplatin resistant, MMR deficient)). Details: Homo sapiens, A2780/CP70; 24 hour drug exposure; MTT.
Format: cell-based, human
Protocol: as §1, §2, §3
Work on `CC[n+]1c(/C=C2\Sc3oc4ccccc4c3N2C)ccc2ccccc21.[I-]` [MMR211] yielded an IC50 of 40 ± 4 nM.
For `CC[n+]1c(/C=C2\SC=CN2C)ccc2ccccc21.[I-]` [MMR212], the IC50 was 435 ± 22 nM.
Compound `CC[n+]1c(/C=C2\SC=C(C)N2C)ccc2ccccc21.[I-]` [MMR213] has an IC50 of 325 ± 44 nM.
With `CC[n+]1ccccc1/C=C1\SC=CN1C.[I-]` [MMR302] the IC50 was 7100 ± 370 nM.
With `CC[n+]1ccccc1/C=C1\SC=C(C)N1C.[I-]` [MMR304] the IC50 was 18000 ± 1300 nM.
Compound `CC[n+]1ccccc1/C=C1\Sc2oc3ccccc3c2N1C.[I-]` [MMR307] has an IC50 of 932 ± 95 nM.

Same assay, conditions: fold difference in resistance from parental A2780; 24 hour drug exposure
In the case of `CC[n+]1c(/C=C2\Sc3oc4ccccc4c3N2C)ccc2ccccc21.[I-]` [MMR211], the “A2780/cp70 RF (Resistance Factor)” value is reported as 0.58.
With `CC[n+]1c(/C=C2\SC=CN2C)ccc2ccccc21.[I-]` [MMR212] the “A2780/cp70 RF (Resistance Factor)” value was 0.26.
For `CC[n+]1c(/C=C2\SC=C(C)N2C)ccc2ccccc21.[I-]` [MMR213], the “A2780/cp70 RF (Resistance Factor)” value was 0.26.
`CC[n+]1ccccc1/C=C1\SC=CN1C.[I-]` [MMR302] was tested, and the “A2780/cp70 RF (Resistance Factor)” value was 0.52.
For `CC[n+]1ccccc1/C=C1\SC=C(C)N1C.[I-]` [MMR304], the “A2780/cp70 RF (Resistance Factor)” value was 0.28.
With `CC[n+]1ccccc1/C=C1\Sc2oc3ccccc3c2N1C.[I-]` [MMR307] the “A2780/cp70 RF (Resistance Factor)” value was 1.24.

Each compound was assayed on A2780/mcp1 (assay: Modified MTT assay, A2780/mcp1 (cisplatin resistant, MMR deficient)). Details: Homo sapiens, A2780/mcp1; 24 hour drug exposure; MTT.
Format: cell-based, human
Protocol: as §1, §2, §3
`CC[n+]1c(/C=C2\Sc3oc4ccccc4c3N2C)ccc2ccccc21.[I-]` [MMR211] gave an IC50 of 38 ± 6 nM.
`CC[n+]1c(/C=C2\SC=CN2C)ccc2ccccc21.[I-]` [MMR212] showed an IC50 of 481 ± 48 nM.
`CC[n+]1c(/C=C2\SC=C(C)N2C)ccc2ccccc21.[I-]` [MMR213] showed an IC50 of 358 ± 103 nM.
Compound `CC[n+]1ccccc1/C=C1\SC=CN1C.[I-]` [MMR302] has an IC50 of 12900 ± 1000 nM.
`CC[n+]1ccccc1/C=C1\SC=C(C)N1C.[I-]` [MMR304] was tested, and the IC50 was 35600 ± 1960 nM.
`CC[n+]1ccccc1/C=C1\Sc2oc3ccccc3c2N1C.[I-]` [MMR307] showed an IC50 of 716 ± 41 nM.

Same assay, conditions: fold difference in resistance from parental A2780; 24 hour drug exposure
For `CC[n+]1c(/C=C2\Sc3oc4ccccc4c3N2C)ccc2ccccc21.[I-]` [MMR211], the “A2780/mcp1 RF (Resistance Factor)” value was 0.55.
In the case of `CC[n+]1c(/C=C2\SC=CN2C)ccc2ccccc21.[I-]` [MMR212], the “A2780/mcp1 RF (Resistance Factor)” value is reported as 0.29.
In the case of `CC[n+]1c(/C=C2\SC=C(C)N2C)ccc2ccccc21.[I-]` [MMR213], the “A2780/mcp1 RF (Resistance Factor)” value is reported as 0.29.
In the case of `CC[n+]1ccccc1/C=C1\SC=CN1C.[I-]` [MMR302], the “A2780/mcp1 RF (Resistance Factor)” value is reported as 0.95.
In the case of `CC[n+]1ccccc1/C=C1\SC=C(C)N1C.[I-]` [MMR304], the “A2780/mcp1 RF (Resistance Factor)” value is reported as 0.55.
With `CC[n+]1ccccc1/C=C1\Sc2oc3ccccc3c2N1C.[I-]` [MMR307] the “A2780/mcp1 RF (Resistance Factor)” value was 0.95.

Each compound was assayed on A1 (MLH1+ve, MMR proficient) (assay: Modified MTT assay, A1 line (A2780/cp70 + chromosome 3, MLH1 +ve)). Details: Homo sapiens, A2780/CP70, read-out: A1 or E1 MLH1 +ve MMR proficient IC50.
Format: cell-based, human
Protocol: as §1
(§4) A1, E1, and A2 are derived by transfer of human chromosome 3 into A2780/cp70. MLH1 is located on chromosome 3.
(§5) IC50 values (μM) for A1 (MLH1+ve, MMR proficient) or E1 (MLH1+ve, MMR proficient) and A2 (MLH1−ve, MMR deficient) lines and Resistance Factors (RF) (the fold difference in resistance between the A2 line, MMR deficient, and the A1 line, MMR proficient) were determined based on the MTT assay described above for several compounds of the present invention (including, e.g., MMR201). Compounds showing increased activity against the MLH1 deficient A2 line compared to the MLH1 proficient A1 or E1 line have RF values less than 1.
Compound `CC[n+]1c(/C=C2\Sc3oc4ccccc4c3N2C)ccc2ccccc21.[I-]` [MMR211] has an IC50 of 144 ± 9 nM.
Work on `CC[n+]1c(/C=C2\SC=CN2C)ccc2ccccc21.[I-]` [MMR212] yielded an IC50 of 4100 ± 450 nM.
`CC[n+]1c(/C=C2\SC=C(C)N2C)ccc2ccccc21.[I-]` [MMR213] gave an IC50 of 2550 ± 180 nM.
With `CC[n+]1ccccc1/C=C1\SC=CN1C.[I-]` [MMR302] the IC50 was 2830 ± 460 nM.
In the case of `CC[n+]1ccccc1/C=C1\SC=C(C)N1C.[I-]` [MMR304], the IC50 is reported as 54200 ± 10800 nM.

The compounds below were run on E1 (MLH1+ve, MMR proficient) (assay: Modified MTT assay, E1 line (A2780/cp70 + chromosome 3, MLH1 +ve)). Details: Homo sapiens, read-out: A1 or E1 MLH1 +ve MMR proficient IC50.
Format: cell-based
Protocol: Relative drug sensitivities (Resistance Factor) and IC50 values were determined by a modified MTT assay (see, e.g., Mosmann, 1983; Plumb et al., 1989), as described below: • (1) Trypsinise a sub-confluent monolayer culture and collect cells in growth medium containing serum. Centrifuge the suspension (200 g, 5 minutes) to pellet cells, re-suspend in growth medium, and count cells. Dilute cells to a density of 5×10^3 cells/mL allowing 60 mL of cell suspension for 3 microtitre plates. Transfer cell suspension to a 10 cm petri dish, and with a multichannel pipette add 200 μL to each well of the central 10 columns of a flat bottomed 96-well plate (80 wells per plate) starting with column 2 and ending with column 11. Add 200 μL of growth medium to the 8 wells in columns 1 and 12. […] Glycine buffer is added (25 μL per well) to all wells containing DMSO. • (8) Absorbance is recorded at 570 nm with the wells in column 1, which contained medium and MTT but no cells used as a blank. • (9) A graph is plotted of absorbance (y-axis) against drug concentration (x-axis). The mean absorbance reading from the wells in columns 2 and 11 is used as the control absorbance and the IC50 concentration is determined as the drug concentration required to reduce the absorbance to half that of the control. IC10 or IC90 values can be determined in the same manner. […]
Work on `CC[n+]1ccccc1/C=C1\Sc2oc3ccccc3c2N1C.[I-]` [MMR307] yielded an IC50 of 937 ± 66 nM.

What follows are compounds tested on A2 (MLH1−ve, MMR deficient) (assay: Modified MTT assay, A2 line (A2780/cp70 + chromosome 3, MLH1 -ve)). Details: A2 (MMR deficient) versus E1 (MMR proficient).
Format: cell-based, human
Protocol: as §1, §4, §5
In the case of `CC[n+]1ccccc1/C=C1\Sc2oc3ccccc3c2N1C.[I-]` [MMR307], the “RF (Resistance Factor)” value is reported as 0.69.

Same assay, conditions: Homo sapiens, A2780/CP70; A2 line
`CC[n+]1c(/C=C2\Sc3oc4ccccc4c3N2C)ccc2ccccc21.[I-]` [MMR211] showed an IC50 of 27 ± 3 nM.
`CC[n+]1c(/C=C2\SC=CN2C)ccc2ccccc21.[I-]` [MMR212] showed an IC50 of 681 ± 76 nM.
`CC[n+]1c(/C=C2\SC=C(C)N2C)ccc2ccccc21.[I-]` [MMR213] showed an IC50 of 530 ± 18 nM.
In the case of `CC[n+]1ccccc1/C=C1\SC=CN1C.[I-]` [MMR302], the IC50 is reported as 4150 ± 800 nM.
Work on `CC[n+]1ccccc1/C=C1\SC=C(C)N1C.[I-]` [MMR304] yielded an IC50 of 16100 ± 2540 nM.
Compound `CC[n+]1ccccc1/C=C1\Sc2oc3ccccc3c2N1C.[I-]` [MMR307] has an IC50 of 648 ± 85 nM.

Same assay, conditions: fold difference in resistance between A2 (MMR deficient) and A1 (MMR proficient)
With `CC[n+]1c(/C=C2\Sc3oc4ccccc4c3N2C)ccc2ccccc21.[I-]` [MMR211] the “RF (Resistance Factor)” value was 0.19.
`CC[n+]1c(/C=C2\SC=CN2C)ccc2ccccc21.[I-]` [MMR212] was tested, and the “RF (Resistance Factor)” value was 0.17.
With `CC[n+]1c(/C=C2\SC=C(C)N2C)ccc2ccccc21.[I-]` [MMR213] the “RF (Resistance Factor)” value was 0.21.
With `CC[n+]1ccccc1/C=C1\SC=CN1C.[I-]` [MMR302] the “RF (Resistance Factor)” value was 1.5.
In the case of `CC[n+]1ccccc1/C=C1\SC=C(C)N1C.[I-]` [MMR304], the “RF (Resistance Factor)” value is reported as 0.30.
